From patent US20170283440A1, “CARM1 INHIBITORS AND USES THEREOF” (Epizyme, Inc., priority 2014, published 2017)
Read-outs that look alike come from different tables or passages of the source.

Columns and labels:
Human CARM1 (PRMT4) = target: T1, Human CARM1 (PRMT4) (Homo sapiens, UniProt Q86X55); test: CARM1 enzyme assay on peptide substrate (3H-SAM Flashplate); type: biochemical; conditions: CARM1 0.25 nM, 3H-SAM 30 nM, peptide 250 nM; read-out: Biochem IC50
T1 construct: Flag-CARM1-His was eluted with 200 ug/ml FLAG peptide in buffer A; made in house; host or cells: HEK 293F cells infected with recombinant baculovirus (pFastBacMam)
Outline: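 Flag-CARM1-His (isoform 1, Δ539-561; HEK293F-expressed), 0.25 nM, preincubated 30 min RT with compound, then 30 nM 3H-SAM and 250 nM biotinylated H3(16-30) R26me1 peptide in pH 7.6 Bicine buffer, 2% DMSO. Stopped with 300 uM cold SAM; streptavidin Flashplate capture, cpm. % inhibition vs DMSO/1 mM SAH, 3- or 4-parameter fit.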

[1] = test system: asymmetric di-methyl PABP1 in RKO cells; test: RKO methylation assay (In Cell Western for asymmetric di-methyl PABP1); type: cell-based; conditions: 48 hours incubation, read-out: Cellular IC50
Outline: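 RKO cells treated 48 h at 37 °C, then fixed, methanol-permeabilized and probed for asymmetric di-methyl PABP1 (16 h, 4 °C) with DRAQ5 counterstain; 800/700 nm intensity ratio read.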

T1 sequence (Q86X55 other isoform, or with tags, fused parts or gaps): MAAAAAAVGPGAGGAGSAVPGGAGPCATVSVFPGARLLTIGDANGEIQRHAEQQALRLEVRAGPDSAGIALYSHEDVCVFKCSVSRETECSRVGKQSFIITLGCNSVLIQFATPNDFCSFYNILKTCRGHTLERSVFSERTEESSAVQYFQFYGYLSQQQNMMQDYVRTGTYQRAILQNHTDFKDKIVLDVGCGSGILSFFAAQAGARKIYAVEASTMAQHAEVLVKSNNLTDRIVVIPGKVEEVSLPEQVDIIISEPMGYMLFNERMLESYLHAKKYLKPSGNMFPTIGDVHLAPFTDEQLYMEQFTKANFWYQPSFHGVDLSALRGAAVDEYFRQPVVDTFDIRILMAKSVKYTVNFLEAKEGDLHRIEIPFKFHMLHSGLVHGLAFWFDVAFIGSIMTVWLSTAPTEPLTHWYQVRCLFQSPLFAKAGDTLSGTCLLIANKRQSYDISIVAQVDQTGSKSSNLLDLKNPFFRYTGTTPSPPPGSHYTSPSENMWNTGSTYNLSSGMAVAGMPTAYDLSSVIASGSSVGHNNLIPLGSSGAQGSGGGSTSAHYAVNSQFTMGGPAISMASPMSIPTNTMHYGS

SMILES	IC50 (Human CARM1 (PRMT4))	IC50 ([1]; Homo sapiens)	IC50 [1]
CNCC(O)COc1cccc(-c2nc(N3CCOCC3)c3cnn(C(C)(C)C)c3n2)c1 (stereo not drawn) [Example 20-5]	< 100 nM	> 20000 nM	
CCc1cc(OCC(O)CNC)cc(-c2cc(N3CCOCC3)n3ncc(C(C)C)c3n2)c1 (stereo not drawn) [Example 20-6]	100 to 1000 nM	> 20000 nM	
CNCC(O)COc1cccc(-c2cc(N3CCOC3=O)n3ncc(C(C)C)c3n2)c1 (stereo not drawn) [Example 20-9]	100 to 1000 nM	> 20000 nM	
CNCC(O)COc1cc(OC(C)C)cc(-c2cc(N3CCOCC3)c3cnn(C(C)C)c3n2)c1 (stereo not drawn) [Example 21-4]	< 100 nM	> 20000 nM	
CNCC(O)COc1cccc(-c2nc(NCc3ccncc3)c3cnn(C4CC4)c3n2)c1 (stereo not drawn) [Example 21-5]	100 to 1000 nM	> 20000 nM	
CNCC(O)COc1cc(NC)cc(-c2cc(N3CCOCC3)n3ncc(C(C)C)c3n2)c1 (stereo not drawn) [Example 21-6]	< 100 nM	> 20000 nM	
CC(C)n1ncc2c(N3CCOCC3)cc(-c3cccc(SCC(O)CN)c3)nc21 (stereo not drawn) [Example 21-9]	100 to 1000 nM	> 20000 nM	
CNCC(O)COc1cc(Cl)cc(-c2cc(NC3CCOCC3)c3c(C)nn(C(C)C)c3n2)c1 (stereo not drawn) [Example 22-4]	< 100 nM	5000 to 10000 nM	
CNCC(O)COc1cccc(-c2nc(NCc3ccccn3)c3cnn(C4CC4)c3n2)c1 (stereo not drawn) [Example 22-5]	100 to 1000 nM	> 20000 nM	
CNCC(O)COc1cc(OC)cc(-c2cc(N3CCOCC3)n3ncc(C(C)C)c3n2)c1 (stereo not drawn) [Example 22-6]	< 100 nM	> 20000 nM	
CNCC(O)COc1cc(OC)cc(-c2cc(N[C@H]3CCOC3)n3ncc(C(C)C)c3n2)c1 (stereo partly drawn) [Example 23-6]	< 100 nM	> 20000 nM	
CNCC(O)COc1cc(CO)cc(-c2cc(NC3CCOCC3)c3cnn(C(C)C)c3n2)c1 (stereo not drawn) [Example 23-9]	100 to 1000 nM	> 20000 nM	
CC(C)n1ncc2c(N3CCOCC3)cc(-c3cc(OCC(O)CN)cc(OC(F)(F)F)c3)nc21 (stereo not drawn) [Example 24-4]	100 to 1000 nM	> 20000 nM	
Cc1cc(CNc2nc(-c3cccc(OCC(O)CN)c3)nc3c2cnn3C2CC2)n(C)n1 (stereo not drawn) [Example 24-5]	< 100 nM	> 20000 nM	
CNCC(O)COc1cc(OC)cc(-c2cc(N[C@@H]3CCOC3)n3ncc(C(C)C)c3n2)c1 (stereo partly drawn) [Example 24-6]	< 100 nM	> 20000 nM	
CC(C)n1ncc2c(NS(=O)(=O)N(C)C)cc(-c3cccc(OCC(O)CN)c3)nc21 (stereo not drawn) [Example 24-9]	100 to 1000 nM	> 20000 nM	

Next, values leading:

IC50 (Human CARM1 (PRMT4))	IC50 ([1]; Homo sapiens)	IC50 [1]	SMILES
< 100 nM	10000 to 20000 nM		CNCC(O)COc1cc(OC)cc(-c2cc(N(C)C3CCOCC3)c3c(C)nn(C(C)C)c3n2)c1 (stereo not drawn) [Example 25-4]
100 to 1000 nM	> 20000 nM		CNCC(O)COc1cccc(-c2nc(NCc3ccn(C)n3)c3cnn(C4CC4)c3n2)c1 (stereo not drawn) [Example 25-5]
< 100 nM	> 20000 nM		CNCC(O)COc1cc(OC)cc(-c2cc(N(C)CCOC)n3ncc(C(C)C)c3n2)c1 (stereo not drawn) [Example 25-6]
100 to 1000 nM	> 20000 nM		CC(C)n1ncc2c(N3CCOCC3)cc(-c3cc(OC[C@H](O)CN)cc(OC[C@H](O)CN)c3)nc21 [Example 25-9]
100 to 1000 nM	> 20000 nM		CNCC(O)COc1cc(Cl)cc(-c2cc(N3CCOC3=O)n3ncc(C(C)C)c3n2)c1 (stereo not drawn) [Example 26-6]
100 to 1000 nM	> 20000 nM		CNCC(O)COc1cc(C#N)cc(-c2cc(N3CCOCC3)n3ncc(C(C)C)c3n2)c1 (stereo not drawn) [Example 26-9]
< 100 nM	> 20000 nM		CNCC(O)COc1cc(Cl)cc(-c2cc(N3CCOCC3)n3ncc(C(C)C)c3n2)c1 (stereo not drawn) [Example 27-6]
100 to 1000 nM	> 20000 nM		CNCC(O)COc1cccc(-c2cc(NS(=O)(=O)N(C)C)c3cnn(C(C)C)c3n2)c1 (stereo not drawn) [Example 27-9]
100 to 1000 nM	> 20000 nM		CNCC(O)COc1cc(OC(F)(F)F)cc(-c2cc(NC3CCOCC3)c3cnn(C(C)C)c3n2)c1 (stereo not drawn) [Example 28-4]
< 100 nM	> 20000 nM		CNCC(O)COc1cc(Cl)cc(-c2cc(NC3CCOC3)n3ncc(C(C)C)c3n2)c1 (stereo not drawn) [Example 28-6]
100 to 1000 nM	> 20000 nM		CC(C)n1ncc2c(N3CCOCC3)cc(-c3cccc(NCC(O)CN)c3)nc21 (stereo not drawn) [Example 28-9]
< 100 nM	> 20000 nM		CNCC(O)COc1cc(Cl)cc(-c2cc(N[C@@H]3CCOC3)n3ncc(C(C)C)c3n2)c1 (stereo partly drawn) [Example 29-6]
100 to 1000 nM	> 20000 nM		Cc1cc(C)c(CNC(=O)c2cc(-c3cccc(OCC(O)CN)c3)nc3nn(C(C)C)cc23)c(=O)[nH]1 (stereo not drawn) [Example 29-9]
< 100 nM	5000 to 10000 nM		CNCC(O)COc1cccc(-c2nc(NC3CCOCC3)c3cnn(C(C)(C)C)c3n2)c1 (stereo not drawn) [Example 30-5]
< 100 nM	> 20000 nM		CNCC(O)COc1cc(Cl)cc(-c2cc(N(C)CCOC)n3ncc(C(C)C)c3n2)c1 (stereo not drawn) [Example 30-6]
100 to 1000 nM	> 20000 nM		CNCC(O)COc1cccc(-c2nc(NCc3cccc[n+]3[O-])c3cnn(C4CC4)c3n2)c1 (stereo not drawn) [Example 31-5]
< 100 nM	> 20000 nM		CNCC(O)COc1cc(OC)cc(-c2cc(Nc3ncccn3)n3ncc(C(C)C)c3n2)c1 (stereo not drawn) [Example 31-6]
100 to 1000 nM		> 20000 nM	CC(C)n1ncc2c(N3CCOCC3)cc(-c3cccc(CCC(O)CN)c3)nc21 (stereo not drawn) [Example 31-9]

IC50 (Human CARM1 (PRMT4))	IC50 ([1]; Homo sapiens)	IC50 [1]	SMILES
100 to 1000 nM	> 20000 nM		CNCC(O)COc1cccc(-c2nc(NCc3ccc[n+]([O-])c3)c3cnn(C4CC4)c3n2)c1 (stereo not drawn) [Example 32-5]
< 100 nM	> 20000 nM		CNCC(O)COc1cccc(-c2cc(N3CC4(CCOCC4)C3)n3ncc(C(C)C)c3n2)c1 (stereo not drawn) [Example 32-6]
< 100 nM	> 20000 nM		CNCC(O)COc1cccc(-c2nc(NCc3ccccn3)c3cnn(C(C)(C)C)c3n2)c1 (stereo not drawn) [Example 33-5]
100 to 1000 nM	> 20000 nM		C=Cc1cc(OCC(O)CNC)cc(-c2cc(NC3CCOCC3)n3ncc(C(C)C)c3n2)c1 (stereo not drawn) [Example 33-6]
< 100 nM	> 20000 nM		CNCC(O)COc1cccc(-c2nc(NCc3cc(C)nn3C)c3cnn(C4CC4)c3n2)c1 (stereo not drawn) [Example 34-5]
< 100 nM	> 20000 nM		CNCC(O)COc1cc(OC)cc(-c2cc(NC3CCOCC3)n3ncc(C(C)C)c3n2)c1 (stereo not drawn) [Example 34-6]
< 100 nM	> 20000 nM		CNCC(O)COc1cc(OC)cc(-c2cc(N(C)[C@@H]3CCOC3)n3ncc(C(C)C)c3n2)c1 (stereo partly drawn) [Example 35-6]
< 100 nM	> 20000 nM		CNCC(O)COc1cccc(-c2nc(N(C)C3CCOCC3)c3cnn(C(C)(C)C)c3n2)c1 (stereo not drawn) [Example 36-5]
< 100 nM	> 20000 nM		CNCC(O)COc1cc(OC)cc(-c2cc(N(C)[C@H]3CCOC3)n3ncc(C(C)C)c3n2)c1 (stereo partly drawn) [Example 36-6]
< 100 nM	> 20000 nM		NCC(O)COc1cccc(-c2nc(NCc3cccc4ccnn34)c3cnn(C4CC4)c3n2)c1 (stereo not drawn) [Example 37-5]
100 to 1000 nM	> 20000 nM		CNCC(O)COc1cc(OC)cc(-c2cc(N3CCC(O)CC3)n3ncc(C(C)C)c3n2)c1 (stereo not drawn) [Example 37-6]
100 to 1000 nM	> 20000 nM		Cc1cc(C)c(CNc2nc(-c3cccc(OCC(O)CN)c3)nc3c2cnn3C2CC2)c(=O)[nH]1 (stereo not drawn) [Example 38-5]
100 to 1000 nM	> 20000 nM		CNCC(O)COc1cc(Cl)cc(-c2cc(NC3C4COCC43)n3ncc(C(C)C)c3n2)c1 (stereo not drawn) [Example 38-6]
< 100 nM	10000 to 20000 nM		NCC(O)COc1cccc(-c2nc(NCc3cn4ccsc4n3)c3cnn(C4CC4)c3n2)c1 (stereo not drawn) [Example 39-5]
< 100 nM	> 20000 nM		CNCC(O)COc1cc(Cl)cc(-c2cc(NC3CCOCC3)n3ncc(C(C)C)c3n2)c1 (stereo not drawn) [Example 39-6]
< 100 nM	> 20000 nM		CNCC(O)COc1cc(Cl)cc(-c2cc(N(C)[C@@H]3CCOC3)n3ncc(C(C)C)c3n2)c1 (stereo partly drawn) [Example 40-6]
100 to 1000 nM	> 20000 nM		Cc1cccn2cc(CNc3nc(-c4cccc(OCC(O)CN)c4)nc4c3cnn4C3CC3)nc12 (stereo not drawn) [Example 41-5]
